{"source": "patent US11602570B2", "about": "“Compositions and systems for renal function determination” (MediBeacon Inc., priority 2017, dated 2023)", "key": {"[1]": {"assay": "Clinical study: plasma pharmacokinetics of MB-102 given intravenously to human patients", "assay_type": "in vivo", "experimental": "(§1) In a clinical study, 60 human patients were administered MB-102 ((2R,2′R)-2,2′-((3,6-diaminopyrazine-2,5-dicarbonyl)bis(azanediyl))bis(3-hydroxypropanoic acid)) prepared in Example 12) intravenously. Blood and urine were collected in addition to the methods and techniques disclosed herein. Standard pharmacokinetic data was collected and comparison was made between the methods and techniques disclosed herein to Omnipaque® (iohexol), a known contrast agent used for GFR determination.\nShown in FIGS. 3A to 3D are data collected from the 60 human patients tested with MB-102. Plasma pharmacokinetic data was collected and analyzed using methods known in the art and compared to the data measured using the methods and techniques disclosed herein.\nFIGS. 3A to 3D illustrate a two compartment pharmacokinetic model for the elimination of MB-102. The model is consistent for patients regardless of their GFR values. FIG. 3A is for patients having normal kidney function having a measured GFR (mGFR) of 120 mL/min. FIG. 3B is for patients having a mGFR of 81 mL/min. FIG. 3C is for patients having a mGFR of 28 mL/min. FIG. 3D is for patients having a mGFR of 25 mL/min. The first compartment in the two compartment model is the vascular to tissue equilibrium while the second compartment illustrates renal excretion only. On average, the time for equilibration is about one hour, and is subject dependent.\nShown in FIG. 6 is the plasma concentration half-life of MB-102 for patients having either normal kidney function, stage 1 renal impairment, stage 2 renal impairment, stage 3 renal impairment, or stage 4 renal impairment."}, "[2]": {"assay": "Clinical study: 12 hour urine collection, amount recovered and degree of secondary metabolism", "assay_type": "in vivo, human", "experimental": "as §1\nAs part of the clinical 1 study for MB-102, urine was collected from patients for 12 hours to determine the amount recovered and degree of secondary metabolism. […] For patients having normal, stage 1 and stage 2 renal function, 12 hour collection time was sufficient for greater than 99% recovery of MB-102. In view of the pharmacokinetic data and the plasma half-life determination, less than complete collection is readily understood for patients having more serious renal function impairment."}, "[3]": {"assay": "Stability testing of MB-102, HPLC evaluation", "assay_type": "physicochemical", "settings": "25° C. and 60% relative humidity", "experimental": "Samples of MB-102 were prepared and stored at 25° C. and 60% relative humidity for 24 months. HPLC evaluation of each sample was performed at various time points to assess the stability of the samples."}}}
{"molecule": "Nc1nc(C(=O)N[C@H](CO)C(=O)O)c(N)nc1C(=O)N[C@H](CO)C(=O)O", "note": "[MB-102, (2R,2′R)-2,2′-((3,6-diaminopyrazine-2,5-dicarbonyl)bis(azanediyl))bis(3-hydroxypropanoic acid)]", "values": [{"measurement": "time for equilibration (vascular to tissue equilibrium)", "setting": "[1]; human patients, intravenous, on average, subject dependent", "value": "about one"}, {"measurement": "average plasma half-life", "setting": "[1]; normal renal function group", "value": "two"}, {"measurement": "plasma half-life", "setting": "[1]; stage 3 renal impairment", "value": 4, "unit": "h"}, {"measurement": "MB-102 recovered from urine", "setting": "[2]; patients having a mGFR value below 60, 12 hours, likewise unmetabolized", "value": "a lower percentage was recovered"}, {"measurement": "MB-102 recovered unmetabolized from urine", "setting": "[2]; patients having an eGFR greater than 60, after 12 hours", "value": "greater than 99%"}, {"measurement": "Purity (HPLC)", "setting": "[3]; 0 months", "value": ">99", "unit": "%"}, {"measurement": "Purity (HPLC)", "setting": "[3]; 6 months", "value": ">99", "unit": "%"}, {"measurement": "Purity (HPLC)", "setting": "[3]; 12 months", "value": 98.9, "unit": "%"}, {"measurement": "Purity (HPLC)", "setting": "[3]; 18 months", "value": 98.3, "unit": "%"}, {"measurement": "Purity (HPLC)", "setting": "[3]; 24 months", "value": 97.8, "unit": "%"}]}
